Source: patent US20080214563A1, “Benzimidazole Thiophene Compounds As Plk Modulators” (priority 2005, published 2008)

What was measured:
Colo 205 = assay: Cell-Titer Glo Cell Growth Inhibition Assay, COLO205; format: cell-based; details: Homo sapiens, CellTiter-Glo, 72 h, read-out: CTG COLO205 IC50
Experimental: (§1) A549-L (human lung), BT474 (human breast), Colo 205 (human colon), H1299 (human lung), Hela (human cervix), HCT-116 (human colon), HN5 (human head and neck), HT29 (human colon), LNCap (human prostate), MCF7 (human breast), MDA-MB468 (human breast), MX-1 (human breast), RPMI 8226 (human peripheral blood), SKOV3 (human ovary) and P388 (murine leukemia) cell lines were cultured in RPMI1640 containing 10% fetal bovine serum at 37° C. in a 5% CO2 incubator. Cell lines were split into T75 flasks (Falcon #353136) two to three days prior to assay set up at density which yields approximately 70-80% confluency at time of harvest for assay. Cells were harvested using 0.25% trypsin with EDTA (Glibco/Invitrogen #25200-056), Cell counts were performed on cell suspensions using Trypan Blue exclusion staining, cells were then plated in 105 uL of culture media per well at the following densities in 96 well Costar #3916 black flat bottom plates: All human cell lines were plated at 500 cells/well. P388 were plated at 250 cells/well. All plates were placed at 5% CO2 37° C. overnight and then test compounds were added the following day. One plate of each cell type is treated with CellTiter-Glo (Promega #G7573) for a day 0 proliferation measurement and read as described below. The test compounds are prepared in clear U bottom polypropylene 96 well plates (Falcon #35-1190 with consecutive two fold dilutions. 9 uL of these dilutions was added into each well of the cell plates. The final concentration of DMSO in all wells is 0.15%. Cells were incubated at 37° C., 5% CO2 for 72 h. Following 72 h of incubation with compounds each plate was developed and read. CellTiter-Glo reagent was added to assay plates using a volume equivalent to the cell culture volume in the wells. Plates were shaken for approximately two minutes and incubated at room temperature for approximately 15 min and the chemiluminescent signal is read on the Victor V or Envison 2100 reader. […] Concentration of compound that inhibited 50% of cell growth (IC50) was analysis by 4 or 6 parameter fit of data using XLfit, value of no cell addition was subtracted from all samples for background.

HCT116 = assay: Methylene Blue Cell Growth Inhibition Assay, HCT116; format: cell-based; details: Homo sapiens, HCT-116, 72 h, read-out: MEB HCT116 IC50
Experimental: Normal human foreskin fibroblasts (HFF), human colon (HCT116, RKO), lung (H460, A549) and breast (MCF7) tumor cell lines were cultured in high glucose DMEM (Life Technologies) containing 10% fetal bovine serum (FBS) at 37° C. in a humidified 5% CO2, 95% air incubator. Cells were harvested using trypsin/EDTA, counted using a haemocytometer, and plated in 100 μL of culture media per well, at the following densities, in a 96-well tissue culture plate (Falcon 3075): HFF 5,000 cells/well, HCT116 3,000 cells/well, RKO 2,500 cells/well, H460 2,500 cells/well, A549 5,000 cells/well, MCF7 4,000 cells/well. The next day, compounds were diluted in low glucose DMEM containing 100 μg/mL gentamicin, at twice the final required concentration, from 10 mM stock solutions in DMSO. 100 μL/well of these dilutions were added to the 100 μL of media currently in the assay plates. Medium containing 0.6% DMSO was added to control wells. The final concentration of DMSO in all wells was 0.3%. Cells were incubated at 37° C., 5% CO2 for 72 h. Medium was removed by aspiration. Cell biomass was estimated by staining cells with 80 μL per well methylene blue (Sigma M9140, 0.5% in 50:50 ethanol:water), and incubation at room temperature for 30-60 min. Stain was removed by aspiration and the plates rinsed by immersion in water, then air-dried. To release stain from the cells, 100 μL of solubilization solution was added (1% N-lauroyl sarcosine, Sodium salt, Sigma L5125, in PBS), and plates were shaken gently for about 30 min. Optical density at 620 nm was measured on a microplate reader. Percent inhibition of cell growth was calculated relative to vehicle treated control wells. Concentration of compound that inhibits 50% of cell growth (IC50) was interpolated using nonlinear regression (Levenberg-Marquardt) and the equation, y=Vmax*(1−(x/(K+x)))+Y2, where “K” was equal to the IC50.

A549-L = assay: Cell-Titer Glo Cell Growth Inhibition Assay, A549-L; format: cell-based; details: Homo sapiens, CellTiter-Glo, 72 h, read-out: CTG A549-L IC50
Experimental: as §1

P388 = assay: Cell-Titer Glo Cell Growth Inhibition Assay, P388; format: cell-based, murine; details: Mus musculus, CellTiter-Glo, 72 h, read-out: CTG P388 IC50
Experimental: as §1

[1] = Intravenous pharmacokinetics in CD-1 mouse; format: in vivo; details: plasma, iv bolus, male CD-1 mouse, dose 1.9-7.4 mg/kg per compound (Table 3); for clearance: read-out: Plasma CL
SKOV3 = assay: Cell-Titer Glo Cell Growth Inhibition Assay, SKOV-3; format: cell-based; details: Homo sapiens, SK-OV-3, CellTiter-Glo, 72 h, read-out: CTG SKOV-3 IC50
Experimental: as §1

| IC50 (Colo 205) [nM] | IC50 (HCT116) [nM] | IC50 (A549-L) [nM] | IC50 (P388) [nM] | AUC(0-t) [1] [ng·h/mL] | clearance [1] [mL/min/kg] | IC50 (SKOV3) [nM] | SMILES |
| --- | --- | --- | --- | --- | --- | --- | --- |
| < 100 | 100 to 1000 | 100 to 1000 | 100 to 1000 | 3420 | 23.5 | 100 to 1000 | C[C@@H](Oc1cc(-n2cnc3cc(-c4ccc(N5CCNCC5)nc4)ccc32)sc1C(N)=O)c1ccccc1C(F)(F)F [Example 1, 5-{5-[6-(1-piperazinyl)-3-pyridinyl]-1H-benzimidazol-1-yl}-3-({(1R)-1-[2-(trifluoromethyl)phenyl]ethyl}oxy)-2-thiophenecarboxamide] |
| < 100 | 100 to 1000 | < 100 | < 100 | 3740 | 33 | 100 to 1000 | C[C@@H](Oc1cc(-n2cnc3cc(-c4ccc(N5CCNCC5)nc4)ccc32)sc1C(N)=O)c1ccccc1Cl [Example 7, 3-{[(1R)-1-(2-Chlorophenyl)ethyl]oxy}-5-{5-[6-(1-piperazinyl)-3-pyridinyl]-1H-benzimidazol-1-yl}-2-thiophenecarboxamide] |

| SMILES | IC50 (Colo 205) [nM] | IC50 (HCT116) [nM] | IC50 (A549-L) [nM] | IC50 (P388) [nM] | AUC(0-t) [1] [ng·h/mL] | clearance [1] [mL/min/kg] | IC50 (SKOV3) [nM] |
| --- | --- | --- | --- | --- | --- | --- | --- |
| C[C@@H](Oc1cc(-n2cnc3cc(-c4cnn(C)c4)ccc32)sc1C(N)=O)c1ccccc1Cl [Example 9, 3-{[(1R)-1-(2-Chlorophenyl)ethyl]oxy}-5-[5-(1-methyl-1H-pyrazol-4-yl)-1H-benzimidazol-1-yl]-2-thiophenecarboxamide] | < 100 | < 100 | < 100 | 100 to 1000 | 5760 | 12.1 | < 100 |
